In patent publication US5614520A, “2-arylthiazole derivatives and pharmaceutical composition thereof” (priority 1990, dated 1997):
Like-named read-outs stand apart in the source and are kept apart here.

Columns and labels:
[1] = biological target: T1, xanthine oxidase (Bos taurus, UniProt P80457); test: In vitro determination of xanthine oxidase (XOD) inhibition; assay type: biochemical; conditions: xanthine oxidase from butter milk, xanthine substrate, pH 7.4, 37° C.
T1 construct: purchased Sigma Chemical Company; host or cells: butter milk
Procedure: (1) Preparation of test compounds:
Test compounds (compounds of Ex. No. listed in Table 1) were dissolved in dimethylsulfoxide and diluted with a 50 mM phosphate buffer to prepare aqueous solutions respectively having predetermined concentrations.
The inhibition rate was determined by the following equation: [formula]
The inhibition (%) was determined on each test compound prepared according to (1), and the IC50 value on the xanthine oxidase (XOD) inhibition was calculated from the value of inhibition.

[2] = system: serum uric acid; test: Determination of oral administration: lowering of serum uric acid in mice; assay type: in vivo, ICR male mice; conditions: for inhibition in vivo at 1 mg/kg: Mus musculus, read-out: Activity of lowering uric acid
Procedure: Test compounds suspended in a 5% gum arabic solution was forcibly administered by oral administration (compounds of Ex. No. of Table 2, dose: 1 mg/kg) to ICR male mice (age: about 7 weeks) (one group: 6 mice) by means of an oral probe. 2 hours after the administration, thoracotomy was conducted under etherization to collect blood from the heart, and serum was removed by a conventional process. The serum uric acid was measured by a biochemical automatic analyzer (Flexigem; Electro-Nucleonics, Inc.) by using a uric acid measurement kit (UA reagent; International Reagent) to determine the percentage of the lowering of uric acid. [formula]

[3] = ICR male mice, oral, 1 mg/kg, 2 hours after administration, serum

T1 sequence (P80457 whole entry): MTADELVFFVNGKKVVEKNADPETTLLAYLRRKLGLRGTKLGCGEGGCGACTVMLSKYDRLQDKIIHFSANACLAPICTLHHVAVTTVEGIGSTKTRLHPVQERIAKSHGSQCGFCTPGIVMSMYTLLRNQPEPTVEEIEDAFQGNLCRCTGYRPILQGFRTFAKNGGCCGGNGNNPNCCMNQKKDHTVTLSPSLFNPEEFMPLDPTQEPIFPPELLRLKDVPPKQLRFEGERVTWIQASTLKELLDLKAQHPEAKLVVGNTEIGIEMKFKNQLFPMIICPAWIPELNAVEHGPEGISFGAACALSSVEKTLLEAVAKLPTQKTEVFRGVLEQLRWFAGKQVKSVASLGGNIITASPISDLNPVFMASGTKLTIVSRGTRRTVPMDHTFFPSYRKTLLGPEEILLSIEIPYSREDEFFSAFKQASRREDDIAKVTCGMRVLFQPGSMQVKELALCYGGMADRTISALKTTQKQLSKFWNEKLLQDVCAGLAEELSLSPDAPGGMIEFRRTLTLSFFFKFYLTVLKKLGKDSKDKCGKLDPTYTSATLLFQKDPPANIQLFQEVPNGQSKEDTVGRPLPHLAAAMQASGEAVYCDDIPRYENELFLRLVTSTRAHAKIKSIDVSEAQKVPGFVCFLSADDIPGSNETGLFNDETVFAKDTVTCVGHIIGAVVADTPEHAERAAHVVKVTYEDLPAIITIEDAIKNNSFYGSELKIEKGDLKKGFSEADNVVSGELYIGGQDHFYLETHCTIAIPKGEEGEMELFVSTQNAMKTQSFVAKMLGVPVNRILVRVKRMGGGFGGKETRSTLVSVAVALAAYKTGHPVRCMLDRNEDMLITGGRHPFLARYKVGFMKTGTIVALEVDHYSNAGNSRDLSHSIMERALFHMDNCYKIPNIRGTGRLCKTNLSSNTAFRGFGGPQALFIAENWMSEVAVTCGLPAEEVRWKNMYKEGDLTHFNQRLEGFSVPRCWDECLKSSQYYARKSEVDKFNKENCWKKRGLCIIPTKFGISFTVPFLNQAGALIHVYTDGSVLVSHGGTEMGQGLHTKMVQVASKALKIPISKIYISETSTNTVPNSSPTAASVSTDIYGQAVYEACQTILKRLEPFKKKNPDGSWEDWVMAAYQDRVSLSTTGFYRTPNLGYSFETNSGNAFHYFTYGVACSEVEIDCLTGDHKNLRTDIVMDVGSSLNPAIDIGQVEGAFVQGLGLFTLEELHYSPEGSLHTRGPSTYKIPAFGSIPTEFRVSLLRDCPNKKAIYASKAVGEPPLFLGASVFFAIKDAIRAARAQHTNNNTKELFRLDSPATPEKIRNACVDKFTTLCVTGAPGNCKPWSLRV

| Compound | IC50 [1] [nM] | inhibition in vivo at 1 mg/kg [2, 3] [%] | inhibition in vivo at 1 mg/kg ([2]; po, 2 h) [%] | Activity of lowering uric acid [2, 3] [%] |
| --- | --- | --- | --- | --- |
| CCC(CC)COc1c(Cl)cc(-c2nc(C)c(C(=O)O)s2)cc1Cl [Example 70, 2-(3,5-Dichloro-4-(2-ethylbutyloxy)phenyl)-4-methyl-5-thiazolecarboxylic acid] | 0.8 | 15 | – | – |
| Cc1nc(-c2ccc(OCC(C)C)c(Br)c2)sc1C(=O)O [Example 63, 2-(3-bromo-4-isobutyloxyphenyl)-4-methyl-5-thiazolecarboxylic acid] | 0.94 | 35 | – | – |
| Cc1nc(-c2ccc(OCC(C)(C)C)c(C#N)c2)sc1C(=O)O [Example 78, 2-(3-Cyano-4-neopentyloxyphenyl)-4-methyl-5-thiazolecarboxylic acid] | 1.9 | 91 | – | – |
| Cc1nc(-c2ccc(Sc3ccc(Cl)cc3)c(Cl)c2)sc1C(=O)O [Example 61, 2-(3-Chloro-4-(4-chlorophenylthio)phenyl)-4-methyl-5-thiazolecarboxylic acid] | 2 | 32 | – | – |
| Cc1nc(-c2ccc(OCC(C)(C)C)c(Cl)c2)sc1C(=O)O [Example 54, 2-(3-Chloro-4-neopentyloxyphenYl)-4-methyl-5-thiazolecarboxylic acid] | 2.9 | 12 | – | – |
| Cc1nc(-c2ccc(OCC(C)C)c(C#N)c2)sc1C(=O)O [Example 77, 2-(3-Cyano-4-isobutyloxyphenyl)-4-methyl-5-thiazolecarboxylic acid] | – | – | 95 | – |
| Cc1nc(-c2ccc(OCCCC3CCCCC3)cc2)sc1C(=O)O [Example 8, 2-(4-(3-Cyclohexylpropyloxy)phenyl)-4-methyl-5-thiazolecarboxylic acid] | 3.2 | 28 | – | – |
| Cc1nc(-c2ccc(OCCN3CCCCC3)c(Cl)c2)sc1C(=O)O [Example 57, 2-(3-Chloro-4-(2-piperidinoethyloxy)phenyl)-4-methyl-5-thiazolecarboxylic acid] | 1.2 | 15 | – | – |
| 2-(4-morpholino-3-nitrophenyl)-4-methyl-5-thiazolecarboxylic acid [Example 38] | 1.8 | – | – | 91 |
| Cc1nc(-c2ccc(OCC(C)C)c(C=O)c2)sc1C(=O)O [Example 86, 2-(3-formyl-4-isobutyloxyphenyl)-4-methyl-5-thiazolecarboxylic acid] | 0.51 | 72 | – | – |
| Cc1nc(-c2ccc(OC(C)C)c(C#N)c2)sc1C(=O)O [Example 76, 2-(3-cyano-4-isopropoxyphenyl)-4-methyl-5-thiazolecarboxylic acid] | – | – | 86 | – |
| Cc1nc(-c2ccc(OCCN3CCOCC3)c(Cl)c2)sc1C(=O)O [Example 56, 2-(3-Chloro-4-(2-morpholinoethyloxy)phenyl)-4-methyl-5-thiazolecarboxylic acid] | 1.5 | 50 | – | – |
| Cc1nc(-c2ccc(Sc3ccc(Cl)cc3)c(Br)c2)sc1C(=O)O [Example 65, 2-(3-Bromo-4-(4-chlorophenylthio)phenyl)-4-methyl-5-thiazolecarboxylic acid] | 1.6 | 42 | – | – |
| Cc1nc(-c2cc(Cl)c(OCCN3CCOCC3)c(Cl)c2)sc1C(=O)O [Example 72, 2-(3,5-Dichloro-4-(2-morpholinoethyloxy)phenyl)-4-methyl-5-thiazolecarboxylic acid] | 0.7 | 48 | – | – |
| Cc1nc(-c2ccc(OCCC(C)C)c(C#N)c2)sc1C(=O)O [Example 79, 2-(3-Cyano-4-isopentyloxyphenyl)-4-methyl-5-thiazolecarboxylic acid] | 2.2 | 89 | – | – |
| Oc1ncnc2[nH]ncc12 [allopurinol, reference compound] | – | – | 73 | – |
| Cc1nc(-c2cc([N+](=O)[O-])ccc2Cl)sc1C(=O)O [Example 24, 2-(2-Chloro-5-nitrophenyl)-4-methyl-5-thiazolecarboxylic acid] | 67 | – | – | – |
| Cc1nc(-c2cccc(C(=O)c3ccccc3)c2)sc1C(=O)O [Example 19, 2-(3-Benzoylphenyl)-4-methyl-5-thiazolecarboxylic acid] | 12 | – | – | – |
| Cc1nc(-c2ccc(N3CCN(C)CC3)c([N+](=O)[O-])c2)sc1C(=O)O [Example 46, 4-methyl-2-(4-(4-methylpiperazinyl)-3-nitrophenyl)-5-thiazolecarboxylic acid] | 2.4 | 75 | – | – |
| Cc1nc(-c2ccc(N(C)C)cc2)sc1C(=O)O [Example 18, 2-(4-(N,N-dimethylamino)phenyl)-4-methyl-5-thiazolecarboxylic acid] | 43 | 22 | – | – |
| Cc1nc(-c2ccc(N3CCOCC3)c(Cl)c2)sc1C(=O)O [Example 59, 2-(3-chloro-4-morpholinophenyl)-4-methyl-5-thiazolecarboxylic acid] | 0.38 | 62 | – | – |

| Compound | IC50 [1] [nM] | inhibition in vivo at 1 mg/kg [2, 3] [%] | inhibition in vivo at 1 mg/kg ([2]; po, 2 h) [%] | Activity of lowering uric acid [2, 3] [%] |
| --- | --- | --- | --- | --- |
| Cc1nc(-c2ccc(OCC(C)C)c([N+](=O)[O-])c2)sc1C(=O)O [Example 34, 2-(4-Isobutyloxy-3-nitrophenyl)-4-methyl-5-thiazolecarboxylic acid] | 2.4 | 76 | – | – |
| Cc1nc(-c2ccc(N3CCCCC3)c(Br)c2)sc1C(=O)O [Example 66, 2-(3-Bromo-4-piperidinophenyl)-4-methyl-5-thiazolecarboxylic acid] | 0.63 | 65 | – | – |
| CCC(CC)COc1ccc(-c2nc(C)c(C(=O)O)s2)cc1Cl [Example 53, 2-(3-Chloro-4-(2-ethylbutyloxy)phenyl)-4-methYl-5-thiazolecarboxylic acid] | 2.7 | 29 | – | – |
| Cc1nc(-c2ccc(OCC(C)C)c([N+](=O)[O-])c2)sc1C(=O)OCC(C)C [Example 48, Isobutyl 2-(4-isobutyloxy-3-nitrophenyl)-4-methyl-5-thiazolecarboxylate] | – | 88 | – | – |
| CCC(CC)COc1ccc(-c2nc(C)c(C(=O)O)s2)cc1[N+](=O)[O-] [Example 42, 2-(4-(2-Ethylbutyloxy)-3-nitrophenyl)-4-methyl-5-thiazolecarboxylic acid] | 2 | 75 | – | – |
| Cc1nc(-c2ccc([S+]([O-])c3ccc(Cl)cc3)c(Cl)c2)sc1C(=O)O (centres unmarked) [Example 62, 2-(3-chloro-4-(4'-chlorophenylsulfinyl)phenyl)-4-methyl-5thiazolecarboxylic acid] | 0.64 | 35 | – | – |
| O=C(O)c1sc(-c2cccc(Cl)c2)nc1O [Example 21, 2-(3-chlorophenyl)-4-hydroxy-5-thiazolecarboxylic acid] | 720 | – | – | – |
| Cc1nc(-c2cccc(C(=O)O)c2)sc1C(=O)O [Example 13, 2-(3-carboxyphenyl)-4-methyl-5-thiazolecarboxylic acid] | 320 | – | – | – |
| Cc1nc(-c2ccc(C(=O)Nc3ccc(Cl)cc3)cc2)sc1C(=O)O [Example 16, 2-(4-(4-Chlorophenylcarbamoyl)phenyl)-4-methyl-5-thiazolecarboxylic acid] | – | – | 21 | – |
| Cc1nc(-c2ccc(C(=O)N(C)c3ccc(Cl)cc3)cc2)sc1C(=O)O [Example 17, 2-(4-(N-(4-chlorophenyl)-N-methylcarbamoyl)phenyl)-4-methyl-5-thiazolecarboxylic acid] | 500 | – | – | – |
| Cc1nc(-c2cccc([N+](=O)[O-])c2)sc1C(=O)O [Example 3, 4-methyl-2-(3-nitrophenyl)-5-thiazolecarboxylic acid] | 14 | – | – | – |
| Cc1nc(-c2cc(C(C)(C)C)c(O)c(C(C)(C)C)c2)sc1C(=O)O [Example 29, 2-(3,5-Di-t-butyl-4-hydroxyphenyl)-4-methyl-5-thiazolecarboxylic acid] | 65 | – | – | – |
| COc1nc(-c2ccc(OC(C)C)cc2)sc1C(=O)O [Example 23, 2-(4-isopropoxyphenyl)-4-methoxy-5-thiazolecarboxylic acid] | 130 | – | – | – |
| CC(=O)c1cc(-c2nc(C)c(C(=O)O)s2)ccc1O [Example 25, 2-(3-Acetyl-4-hydroxyphenyl) -4-methyl-5-thiazolecarboxylic acid] | 300 | – | – | – |
| Cc1nc(-c2ccc(OC(C)C)cc2)sc1C(=O)O [Example 2, 2-(4-isopropoxyphenyl)-4-methyl-5-thiazolecarboxylic acid] | 28 | – | – | – |
| Cc1nc(-c2ccc(OC(C)C)c([N+](=O)[O-])c2)sc1C(=O)OC(C)C [Example 47, isopropyl 2-(4-isopropoxy-3-nitrophenyl)-4-methyl-5-thiazolecarboxylate] | – | 92 | – | – |
| Cc1nc(-c2ccc(OCc3ccc(F)cc3)cc2)sc1C(=O)O [Example 10, 2-(4-(4-Fluorobenzyloxy)phenyl)-4-methyl-5-thiazolecarboxylic acid] | 31 | – | – | – |
| Cc1nc(-c2ccc([N+](=O)[O-])cc2)sc1C(=O)O [Example 4, 4-methyl-2-(4-nitrophenyl)-5-thiazolecarboxylic acid] | 900 | – | – | – |
| Cc1cc(-c2nc(C)c(C(=O)O)s2)cc(C)c1O [Example 30, 2-(3,5-Dimethyl-4-hydroxyphenyl)-4-methyl-5-thiazolecarboxylic acid] | 42 | – | – | – |
| Cc1nc(-c2ccc(OCc3ccc(Cl)cc3)cc2)sc1C(=O)O [Example 9, 2-(4-(4-Chlorobenzyloxy)phenyl)-4-methyl-5-thiazolecarboxylic acid] | 17 | – | – | – |
